Results from publication PMC6156755, “Using Human Plasma as an Assay Medium in Caco-2 Studies Improves Mass Balance for Lipophilic Compounds” (Pharmaceutical Research, 2018).

Key:
Caco-2 cell monolayer = experiment: Caco-2 permeability assay with pH 7.4 buffer or human plasma in both chambers
P-gp = experiment: as above; settings: human, Caco-2, pH 7.4, with verapamil 100 µM, Papp B-A, + 100 μM verapamil
[1] = as above; settings: human
in vitro = settings: human
[2] = Human plasma protein binding (ultracentrifugation or rapid equilibrium dialysis); assay type: in vitro ADME; settings: pH 7.4; neat human plasma, 37°C, concentration comparable to Caco-2 assay; read-out: fu (fraction unbound in plasma)
Protocol: Binding was assessed using one of two methods: ultracentrifugation ([31]) using neat human plasma or rapid equilibrium dialysis (RED) using either neat or diluted plasma. […] To allow analysis with a single calibration curve, the total plasma and protein-free supernatant samples were ‘matrix-matched’ by taking aliquots of protein-free supernatant samples and adding to fresh tubes containing an equal volume of blank plasma, or taking aliquots of the total plasma samples and adding to fresh tubes containing an equal volume of Dulbecco’s phosphate-buffered saline (DPBS). In this way, the final composition of both the protein-free supernatant samples and the total plasma samples were ‘matched’ prior to the analysis against a common calibration curve prepared in a 1:1 mixture of human plasma and DPBS. All samples were then stored frozen at −80°C until analysis.
The holding plate was then placed on a plate shaker (set at 800 rpm; ThermoMixer C, Eppendorf) and maintained at 37°C under a 2% CO2 atmosphere. The dialysis was conducted for 6 h, assuming steady state was achieved by the end of this period ([32]). Samples were then removed from both the donor and dialysate chambers of each RED insert. […] Samples were matrix matched as described above (but using PBS buffer instead of DPBS) and stored at −80°C until analysis.
For the more lipophilic compounds with potential for very high binding, the RED method was used with diluted plasma to increase the chance of detecting concentrations in the dialysate samples. Diluted human plasma (10% v/v in pH 7.4 phosphate buffered saline) was spiked with each compound (at 10% of the concentration used for the Caco-2 experiment with neat plasma) and binding conducted as described above. The binding in neat plasma was then calculated by correcting for the dilution as described below.
For binding measurements in neat plasma by ultracentrifugation, the fraction unbound (fu) was calculated from the ratio of the average unbound concentration in protein free supernate (Cunbound) to the average total concentration in non-centrifuged plasma (Ctotal). The standard deviation (SD) for the fu value was calculated using the propagation of errors approach as described previously ([33]). For binding measurements using the RED method in neat plasma, fu was calculated from the ratio of the dialysate to total plasma concentration for each dialysis unit and the mean and SD calculated for replicate units (n = 3).
For RED binding assessments using 10% plasma, the fu − diluted for individual dialysis units was calculated in the same way as described above.

Mass balance B-A (Caco-2 cell monolayer; buffer pH 7.4 in both chambers): 100 ± 0%
Mass balance B-A (Caco-2 cell monolayer; buffer, + 100 μM verapamil): 100 ± 0.58%
Mass balance A-B (Caco-2 cell monolayer; buffer, + 100 μM verapamil (P-gp inhibitor)): 99 ± 0.58%
Mass balance B-A (Caco-2 cell monolayer; human plasma in both chambers): 100 ± 5.8%
Mass balance A-B (Caco-2 cell monolayer; plasma, + 100 μM verapamil): 96 ± 2.1%
Mass balance B-A (Caco-2 cell monolayer; plasma, + 100 μM verapamil): 99 ± 0.58%
Papp B→A (P-gp; buffer): 5.8 ± 0.53 ×10⁻⁶ cm/s
Papp B→A (P-gp; plasma, corrected for fu): 7.4 ± 0.49 ×10⁻⁶ cm/s
Papp A→B ([1]; Caco-2, pH 7.4, Papp A-B, buffer pH 7.4 in both chambers): 2.7 ± 0.21 ×10⁻⁶ cm/s
Papp B→A ([1]; Caco-2, pH 7.4, Papp B-A, buffer pH 7.4 in both chambers): 18 ± 0.58 ×10⁻⁶ cm/s
Papp A→B ([1]; Caco-2, pH 7.4, with verapamil 100 µM, Papp A-B, buffer, + 100 μM verapamil): 4.6 ± 0.46 ×10⁻⁶ cm/s
Papp A→B ([1]; Caco-2, pH 7.4, with verapamil 100 µM, Papp A-B, plasma, + 100 μM verapamil, corrected for fu): 6.2 ± 1 ×10⁻⁶ cm/s
Papp A→B (in vitro; Caco-2, pH 7.4, Papp A-B): 4.7 ± 0.15 ×10⁻⁶ cm/s
Papp B→A (in vitro; Caco-2, pH 7.4, Papp B-A): 26 ± 1.5 ×10⁻⁶ cm/s
fraction unbound [2]: 0.61
SMILES: C[C@H]1O[C@@H](O[C@H]2[C@@H](O)C[C@H](O[C@H]3[C@@H](O)C[C@H](O[C@H]4CC[C@@]5(C)[C@H](CC[C@@H]6[C@@H]5C[C@@H](O)[C@]5(C)[C@@H](C7=CC(=O)OC7)CC[C@]65O)C4)O[C@@H]3C)O[C@@H]2C)C[C@H](O)[C@@H]1O [^3H-Digoxin, [^3H(G)]-digoxin]
